Assay results reported in ChEMBL document CHEMBL1177675, “Synthesis and antiproliferative evaluation of certain iminonaphtho[2,3-b]furan derivatives” (Bioorg Med Chem, 2010).
Active and inactive are the calls of the source. The rule behind the calls is not given here.

What was measured:
[1] = Cytotoxicity against human Detroit 551 cells after 72 hrs by XTT assay; assay type: cell-based
MCF7 [2] = assay: Cytotoxicity against human MCF7 cells at 4 ug/ml after 48 hrs by sulforhodamine B assay relative to control; assay type: functional
K562 [3] = assay: Cytotoxicity against human K562 cells after 72 hrs by XTT assay; assay type: functional; conditions: K562, 72 h
NCI-H460 [4] = assay: Cytotoxicity against human NCI-H460 cells at 4 ug/ml after 48 hrs by sulforhodamine B assay relative to control; assay type: functional
NCI-H460 [5] = assay: Cytotoxicity against human NCI-H460 cells after 72 hrs by XTT assay; assay type: functional; conditions: NCI-H460, 72 h
SF-268 [6] = assay: Cytotoxicity against human SF268 cells after 72 hrs by XTT assay; assay type: functional; conditions: SF-268, 72 h
K562 [7] = assay: Selectivity index, ratio of GI50 for human Detroit 551 cells to GI50 for human K562 cells; assay type: functional
SF-268 [8] = assay: Cytotoxicity against human SF268 cells at 4 ug/ml after 48 hrs by sulforhodamine B assay relative to control; assay type: functional
MCF7 [9] = assay: Cytotoxicity against human MCF7 cells after 72 hrs by XTT assay; assay type: functional; conditions: MCF7, 72 h
MCF7 [10] = assay: Selectivity index, ratio of GI50 for human Detroit 551 cells to GI50 for human MCF7 cells; assay type: functional
SF-268 [11] = assay: Selectivity index, ratio of GI50 for human Detroit 551 cells to GI50 for human SF268 cells; assay type: functional
NCI-H460 [12] = assay: Selectivity index, ratio of GI50 for human Detroit 551 cells to GI50 for human NCI-H460 cells; assay type: functional
K562 [13] = assay: Cell cycle arrest in human K562 cells assessed as accumulation at S phase at 1 uM after 24 hrs using propidium iodide staining by flow cytometry; assay type: functional
K562 [14] = assay: Cell cycle arrest in human K562 cells assessed as accumulation at Sub-G1 phase at 1 uM after 24 hrs using propidium iodide staining by flow cytometry; assay type: functional
K562 [15] = assay: Cell cycle arrest in human K562 cells assessed as accumulation at G0/G1 phase at 1 uM after 24 hrs using propidium iodide staining by flow cytometry; assay type: functional
K562 [16] = assay: Cell cycle arrest in human K562 cells assessed as accumulation at G2/M phase at 1 uM after 24 hrs using propidium iodide staining by flow cytometry; assay type: functional
K562 [17] = assay: Induction of apoptosis in human K562 cells assessed as activation of caspase-3 activity after 48 hrs by immunoblot analysis; assay type: functional, cell-based
K562 [18] = assay: Induction of apoptosis in human K562 cells assessed as PARP cleavage after 48 hrs by immunoblot analysis; assay type: functional, cell-based
K562 [19] = assay: Induction of apoptosis in human K562 cells assessed as formation of fragmented DNA at 1 to 10 uM after 48 hrs using ethidium bromide staining by agarose gel electrophoresis; assay type: functional, cell-based
K562 [20] = assay: Induction of apoptosis in human K562 cells assessed as morphological changes at 1 to 10 uM after 48 hrs using DAPI staining by fluorescent microscopic analysis; assay type: functional, cell-based

Compound | GI50 at 72 h [1] [µM] | Activity (MCF7 [2]) [%] | GI50 (K562 [3]) [µM] | Activity (NCI-H460 [4]) [%] | GI50 (NCI-H460 [5]) [µM] | GI50 (SF-268 [6]) [µM] | RatioGI50 (K562 [7]) | Activity (SF-268 [8]) [%] | GI50 (MCF7 [9]) [µM] | RatioGI50 (MCF7 [10]) | RatioGI50 (SF-268 [11]) | RatioGI50 (NCI-H460 [12]) | Activity (K562 [13]) [%] | Activity (K562 [14]) [%] | Activity (K562 [15]) [%] | Activity (K562 [16]) [%] | Activity (K562 [17]) | Activity (K562 [18]) | Activity (K562 [19]) | Activity (K562 [20])
COc1cccc2c1C(=O)c1c(O)c3c(c(O)c1C2=O)C[C@@](O)(C(C)=O)C[C@@H]3O[C@H]1C[C@H](N)[C@H](O)[C@H](C)O1 [DAUNORUBICIN] | 1.77 | 30 | 0.0074 | 15 | 0.38 | 0.6 | 239 | 16 | 0.86 | 2.06 | 2.95 | 4.66 | – | – | – | – | – | – | – | –
O=C1c2ccccc2/C(=N/OCCN2CCCCC2)c2ccoc21 | – | 87 | – | 79 | – | – | – | 64 | – | – | – | – | – | – | – | – | – | – | – | –
c1ccc(/N=C2/c3ccccc3/C(=N/c3ccccc3)c3occc32)cc1 | – | 111 | – | 111 | – | – | – | 102 | – | – | – | – | – | – | – | – | – | – | – | –
O=C1c2ccccc2/C(=N/OCc2ccccc2)c2ccoc21 | – | 93 | – | 85 | – | – | – | 103 | – | – | – | – | – | – | – | – | – | – | – | –
O=C1c2ccccc2/C(=N/c2ccccc2)c2ccoc21 | – | 74 | – | 65 | – | – | – | 74 | – | – | – | – | – | – | – | – | – | – | – | –
O=C1c2ccccc2C(=O)c2occc21 | 14.8 | 1 | 0.65 | 2 | 5.07 | 5.65 | 22.82 | 16 | 5.92 | 2.5 | 2.62 | 2.92 | 29.4 | 8.24 | 27.4 | 43.2 | – | – | – | –
O=C1c2ccccc2/C(=N/c2ccc(F)cc2)c2ccoc21 | – | 75 | – | 67 | – | – | – | 77 | – | – | – | – | – | – | – | – | – | – | – | –
CN(C)CCO/N=C1/c2ccccc2C(=O)c2occc21 | – | 78 | – | 51 | – | – | – | 53 | – | – | – | – | – | – | – | – | – | – | – | –
O=[N+]([O-])c1ccc(/N=C2/c3ccccc3/C(=N/c3ccc([N+](=O)[O-])cc3)c3occc32)cc1 | – | 111 | – | 117 | – | – | – | 118 | – | – | – | – | – | – | – | – | – | – | – | –
Br.NCCCO/N=C1/c2ccccc2C(=O)c2occc21 | 40.9 | 10 | 6.62 | 44 | 7.19 | 9.02 | 6.18 | 15 | 12.6 | 3.24 | 4.53 | 5.69 | 3.2 | 4.19 | 33.5 | 63.3 | – | – | – | –
CC[C@@]1(O)C(=O)OCc2c1cc1n(c2=O)Cc2cc3ccccc3nc2-1 [CAMPTOTHECIN] | 0.99 | 33 | 0.06 | 1 | 0.03 | 0.19 | 16.5 | 25 | 0.57 | 1.74 | 5.21 | 33 | – | – | – | – | – | – | – | –
Clc1ccc(/N=C2/c3ccccc3/C(=N/c3ccc(Cl)cc3)c3occc32)cc1 | – | 109 | – | 112 | – | – | – | 116 | – | – | – | – | – | – | – | – | – | – | – | –
CN(C)CCCO/N=C1/c2ccccc2C(=O)c2occc21 | – | 74 | – | 51 | – | – | – | 54 | – | – | – | – | – | – | – | – | – | – | – | –
CC(=O)O/N=C1/c2ccccc2C(=O)c2occc21 | > 100 | 10 | 8.59 | 5 | 7.46 | 7.9 | >11.64 | 18 | 13.3 | >7.51 | >12.66 | >13.4 | 30.2 | 5.82 | 29 | 41.9 | – | – | – | –
O=C1c2ccccc2/C(=N/OCCN2CCCC2)c2ccoc21 | – | 72 | – | 51 | – | – | – | 58 | – | – | – | – | – | – | – | – | – | – | – | –
O=C1c2ccccc2/C(=N/OCCN2CCOCC2)c2ccoc21 | – | 97 | – | 68 | – | – | – | 90 | – | – | – | – | – | – | – | – | – | – | – | –
O=C1C(=O)c2ccoc2-c2ccccc21 | 5.77 | 0 | 0.64 | -1 | 6.38 | 6.38 | 9.02 | 0 | 6.42 | 0.9 | 0.9 | 0.9 | 51.2 | 3.75 | 36.1 | 12.7 | – | – | – | –
FC(F)(F)c1ccc(/N=C2/c3ccccc3/C(=N/c3ccc(C(F)(F)F)cc3)c3occc32)cc1 | – | 111 | – | 115 | – | – | – | 105 | – | – | – | – | – | – | – | – | – | – | – | –
CCN(CC)CCOC(=O)c1ccc(/N=C2/c3ccccc3/C(=N/c3ccc(C(=O)OCCN(CC)CC)cc3)c3occc32)cc1 | 1.97 | -1 | 0.63 | -1 | 2.23 | 4.1 | 3.13 | 18 | 2.6 | 0.76 | 0.49 | 0.88 | 7.1 | 5.56 | 40.4 | 52.5 | – | – | – | –
COc1ccc(/N=C2/c3ccccc3/C(=N/c3ccc(OC)cc3)c3occc32)cc1 | – | 86 | – | 90 | – | – | – | 85 | – | – | – | – | – | – | – | – | – | – | – | –
O=C1c2ccccc2/C(=N/O)c2ccoc21 | > 100 | 10 | 0.82 | 5 | 7.71 | 8.85 | >121.95 | 16 | 12.3 | >8.13 | >11.3 | >12.97 | 4.4 | 4.41 | 37.7 | 58 | – | – | – | –
CO/N=C1/c2ccccc2C(=O)c2occc21 | > 100 | 36 | 0.6 | 4 | 6.76 | 16.5 | >166.67 | 22 | 10.2 | >9.85 | >6.05 | >14.79 | 35.7 | 4.8 | 26.1 | 38.2 | Dose-dependent effect | Dose-dependent effect | Active | Active
Cc1ccc(/N=C2/c3ccccc3/C(=N/c3ccc(C)cc3)c3occc32)cc1 | – | 104 | – | 104 | – | – | – | 118 | – | – | – | – | – | – | – | – | – | – | – | –
Fc1ccc(/N=C2/c3ccccc3/C(=N/c3ccc(F)cc3)c3occc32)cc1 | – | 102 | – | 103 | – | – | – | 118 | – | – | – | – | – | – | – | – | – | – | – | –
